Laboratory results published in patent publication US10323254B2, “Method for regulating plant growth” (RIKEN, priority 2015, dated 2019).

Experiments:
[1] = tested on: BR-responsive genes (TCH4, BAS1, IAA19, and SAUR-AC1); assay: qRT-PCR of BR-responsive gene expression in seedlings; format: in vivo, Arabidopsis thaliana; details: wild-type (WT) plants; 7-day-old dark-germinated seedlings; 3 μM Brz or 100 nM BL for 3 hours
Experimental: The expression level of TCH, BAS1, IAA19, and SAUR-AC1 were analyzed by qRT-PCR in 7-day-old dark-germinated seedlings and treated with medium containing DMSO (Mock), 3 μM Brz (+Brz), or 100 nM BL (+BL) for 3 hours. The data represent the mean±s.d. of 4 independent experiments (**P<0.01, Student's t-test). […] Ten-day-old seedlings grown on medium with Brz were treated with 100 nM BL or mock solution for 3 hours. Total proteins were extracted and analyzed by immunoblotting with an anti-BIL1 antibody. […] The signal intensities of phosphorylated BIL1 (above) and dephosphorylated BIL1 (below) are shown by arrowhead, and each band signal is counted as a percentage relative to the level of phosphorylated BIL1 in WT seedlings.
Total RNA was extracted from plants using an RNeasy Plant Mini Kit (QIAGEN).
The first-strand cDNA was synthesized using PrimeScript (Takara) and was used in qRT-PCR. The qRT-PCR was performed according to the instructions provided for the Thermal Cycler Dice (Takara) using the SYBR Premix ExTaq system (Takara). […]

BSS1-GFP [2] = assay: Fluorescence microscopy of punctate BSS1-GFP in transgenic seedlings; format: in vivo, Arabidopsis thaliana; details: for number of intense puncta per cell: 7-day-old BSS1-GFP seedlings treated 3 hours with 3 μM Brz or 100 μM BL; for single fluorescence intensity of each punctum: Brz versus BL treatment conditions, 3 hours; for onset of responsiveness of punctate BSS1-GFP: time after treatment, roots and hypocotyls
Experimental: FIGS. 5C to 5E show analysis of BSS1-GFP puncta signal intensities upon treatment with Brz and BL. Seven-day-old BSS1-GFP transgenic seedlings were treated for 3 hours with 3 μM Brz (Brz), an equal volume of DMSO (Mock), or 100 μM BL (BL). […] The results are represented as the mean±s.d. The signal intensity was measured using ImageJ software. […]
The plants that were transformed with the CaMV35S-BSS1-GFP construct BSS1(-GFP)-OX and the CaMV35S-BIL1-GFP construct BIL1-GFP-OX were observed via confocal laser scanning microscopy with a BX60 fluorescence microscope (Olympus) equipped with a Model CSU10 confocal scanner (Yokogawa Electric) and LSM700 (Zeiss).
FM4-64 (Molecular Probes) dissolved in water was applied to Arabidopsis plants at a final concentration of 4 μM for 3 minutes. The plants were washed with water to remove the excessive amount of the stain and observed. A DMSO-base stock solution of Brefeldin A (BFA) (Sigma) was applied to the cells at a final concentration of 50 μM for 1 hour.
The images were analyzed using ImageJ software. To measure the ratio of the nuclear and cytosolic signals of BIL1-GFP for each cell, the signal intensities in the nucleus and cytosol were calculated from the mean of the intensity in each area. The nuclear to cytosolic signal ratio was then calculated for each cell. The average nuclear/cytosolic signal ratio and standard error were calculated from measurements of at least 54 cells from each line (FIG. 9B). Line scan measurements from the vacuole to the nucleus through the cytosol were performed, and representative plot profiles of sample measurements are presented in FIG. 5C.

[3] = tested on: nEYFP-BSS1 and BIL1-cEYFP; assay: BiFC analysis of the BSS1-BIL1 interaction in protoplast cells; format: cell-based, Arabidopsis; details: protoplasts
Experimental: BIL1 was fused with the binding-domain (BD) and BSS1 was fused with the prey domain (AD). Empty vector (E) was used as a control. The results are presented as the mean±s.d. from 3 independent experiments. […] FLAG-BIL1 was immunoprecipitated using an anti-FLAG antibody and immunoblotted using anti-GFP and anti-FLAG antibodies. […] The protoplast medium contained DMSO, 100 nM BL, or 3 μM Brz and cells were cultured for 12 hours. The bottom panels show protoplasts cotransfected with nYFP-BSS1 and BSS1-cEYFP (YFP: YFP fluorescence; BF: bright field; Merge: merged image of YFP and BF; arrow: nucleus; scale bar: 5 μm). […]
To analyze the direct interaction between BSS1 and BIL1 in the plant cell and to identify the localization of the possible interaction between the two proteins, a bi-molecular fluorescence complementation (BiFC) analysis was performed. […] The YFP fluorescence signal caused by the binding of nYFP-BSS1 and BIL1-cYFP was only observed in the cytosol and not in the nucleus of the Arabidopsis protoplasts (FIG. 7E). […]

BSS1-GFP [4] = assay: Fluorescence microscopy of punctate BSS1-GFP in transgenic seedlings; format: in vivo, Arabidopsis thaliana; details: versus control conditions; for number of punctate BSS1-GFP: seedlings grown on medium with 3 μM Brz or 100 nM BL

Compound | expression of TCH4, BAS1, IAA19, and SAUR-AC1 [1] | number of intense puncta per cell (BSS1-GFP [2]; versus mock) | single fluorescence intensity of each punctum (BSS1-GFP [2]) | onset of responsiveness of punctate BSS1-GFP (BSS1-GFP [2]) | localization of YFP signal (nYFP-BSS1 / BIL1-cYFP) ([3]; 100 nM BL for 12 hours) | number of punctate BSS1-GFP (BSS1-GFP [4]) | fluorescence intensity of the puncta per cell with respect to the whole-cell fluorescence intensity (BSS1-GFP [2]; 7-day-old BSS1-GFP seedlings treated 3 hours with 3 μM Brz) | cytosolic fluorescence signal (BSS1-GFP [2]; 7-day-old BSS1-GFP seedlings treated 3 hours with 3 μM Brz, versus mock) | punctate YFP signal (nYFP-BSS1 / BIL1-cYFP) ([3]; 3 μM Brz for 12 hours) | diffused BSS1-GFP signal in the cytosol (BSS1-GFP [4]; seedlings grown on medium containing Brz)
CC(C)[C@H](C)[C@@H](O)[C@H](O)[C@@H](C)[C@H]1CC[C@H]2[C@@H]3COC(=O)[C@H]4C[C@H](O)[C@H](O)C[C@]4(C)[C@H]3CC[C@]12C [BL, brassinolide] | increased | decreased | not different | 15 min | diffuse and spread throughout the cytosol and the nucleus | decreased in number | – | – | – | –
CC(O)(c1ccccc1)C(Cc1ccc(Cl)cc1)n1cncn1 (stereo not drawn) [Brz, brassinazole] | suppressed | increased | not different | 15 min | – | increased in number | increase | decreased | increased | reduced
